Data: publication PMC8042770, “Odorant Receptors for Detecting Flowering Plant Cues Are Functionally Conserved across Moths and Butterflies” (Molecular Biology and Evolution, 2020)
“Also recorded” adds a separate entry of the source.

Key:
[1] = tested on: SlitOR14; parameters: method as in de Fouchier et al. 2017; details: ref de Fouchier et al. 2017; cited from earlier work
[2] = tested on: RnubOR13; assay: Xenopus oocyte voltage clamp of RnubOR13; format: cell-based, Rhyacophila nubila; details: test panel
Text: (§1) We also examined the response profile of EsemOR19 from E. semipurpurella, an OR that falls close to the HarmOR42-defined clade but that is not considered as a HarmOR42 ortholog. […] We also characterized the function of RnubOR13 from R. nubila (Trichoptera), a species from a sister order of Lepidoptera. […] Unfortunately, the putative E. semipurpurella OR that would consist of EsemOR34 + 35 and that falls at the base of the HarmOR42 clade could not be tested as it is incomplete.
(§2) Functional characterization of individual ORs was performed by heterologous expression in Xenopus oocytes combined with a two-electrode voltage-clamp system ([Wang et al. 2010]). Briefly, the full-length gene of each OR and Orco were subcloned into the eukaryotic expression vector pT7TS. cRNAs were generated from linearized expression vectors using the mMESSAGE mMACHINE T7 kit (Ambion, Austin, TX). […] After incubation in nutrient solution at 18 °C for 3–5 days, the response profile of each oocyte to multiple plant odorants was recorded via a two-electrode voltage clamp (OC-725C oocyte clamp, Warner Instruments, Hamden, CT) at a holding potential of −80 mV. Data were acquired by using a Digidata 1440 A and were analyzed by pCLAMP 10.2 software (Axon Instruments Inc., Union City, CA). […]

[3] = target: HarmOR59 (Helicoverpa armigera, UniProt A0A7T3KAU6); assay: Xenopus oocyte two-electrode voltage clamp, HarmOR59 + Orco; format: cell-based
HarmOR59, sequence (A0A7T3KAU6 entry or part of it): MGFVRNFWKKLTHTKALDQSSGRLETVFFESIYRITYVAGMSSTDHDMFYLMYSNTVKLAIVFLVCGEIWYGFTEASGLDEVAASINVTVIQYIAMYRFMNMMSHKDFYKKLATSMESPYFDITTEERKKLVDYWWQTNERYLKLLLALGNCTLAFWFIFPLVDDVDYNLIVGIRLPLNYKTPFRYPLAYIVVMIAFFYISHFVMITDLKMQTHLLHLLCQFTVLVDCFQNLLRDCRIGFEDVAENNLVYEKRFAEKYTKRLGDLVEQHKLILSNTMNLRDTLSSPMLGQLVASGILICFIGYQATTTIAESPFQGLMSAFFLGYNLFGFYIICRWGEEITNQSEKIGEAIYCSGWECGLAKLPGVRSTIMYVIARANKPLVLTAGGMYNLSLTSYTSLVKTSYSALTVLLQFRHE
Description: (§3) In order to expand our analysis on the response properties of HarmORs, we conducted dose–response analyses for the 28 functional HarmORs. […] Six HarmORs (OR3, 22, 48, 50, 56, and 66) could not be activated by any ligand at 10^−5 M. For the other 22 HarmORs, dose–response curves were generated and EC50 values of their major ligands were calculated (fig. 2A and supplementary table S2, Supplementary Material online). The HarmOR repertoire was highly efficient in terpene detection, since the lowest EC50 values were obtained for such compounds. Many of these terpenes have been proposed to be defensive chemicals of plants. […] DMNT is also one of the oviposition deterring compounds found in larval frass of some Lepidoptera species such as S. littoralis ([Anderson et al. 1993]).
(§4) Functional characterization of individual ORs was performed by heterologous expression in Xenopus oocytes combined with a two-electrode voltage-clamp system ([Wang et al. 2010]). Briefly, the full-length gene of each OR and Orco were subcloned into the eukaryotic expression vector pT7TS. cRNAs were generated from linearized expression vectors using the mMESSAGE mMACHINE T7 kit (Ambion, Austin, TX). Then, the cRNA mixture of ORx and Orco (27.6 ng each) was injected (Nanoliter 2010, WPI Inc., Sarasota, FL) into oocytes (stage V–VII). The respective Orcos of different species were used for functional studies of OR42 orthologs except for the four butterfly species (V. tameamea, P. xuthus, D. plexippus, and P. rapae), in which we used the Orco from P. xuthus. After incubation in nutrient solution at 18 °C for 3–5 days, the response profile of each oocyte to multiple plant odorants was recorded via a two-electrode voltage clamp (OC-725C oocyte clamp, Warner Instruments, Hamden, CT) at a holding potential of −80 mV. Data were acquired by using a Digidata 1440 A and were analyzed by pCLAMP 10.2 software (Axon Instruments Inc., Union City, CA).
(§5) Stock solutions of each odorant were prepared at 1 M using DMSO as a solvent, and each odorant was diluted in 1× Ringer’s solution to the indicated concentrations for electrophysiological recording. For functional screening of each HarmOR, a panel of 67 odorants belonging to three types of chemical classes: terpenes, aromatics, and aliphatics (short-chain fatty acid) were used (supplementary table S1, Supplementary Material online). For functional studies of OR42 orthologs from different species, six odorants including PAA, benzaldehyde, (E)-2-hexen-1-al, cinnamaldehyde, 2-phenylethanol, and heptanal were used.

[4] = tested on: EsemOR19; assay: Xenopus oocyte voltage clamp of EsemOR19; format: cell-based, Eriocrania semipurpurella; details: 10^−4 M
Text: as §1
Full-length coding sequences of 45 ORs (including Orco) of H. armigera, and OR42 and Orco orthologs in B. mori, H. assulta, G. molesta, and M. separate were amplified from the antennal cDNA of each species adults by PCR with specific primer pairs of each gene. […]
as §2, with “2010]).” for “2010]). Briefly, the full-length gene of each OR and Orco were subcloned into the eukaryotic expression vector pT7TS. cRNAs were generated from linearized expression vectors using the mMESSAGE mMACHINE T7 kit (Ambion, Austin, TX).”

[5] = target: HarmOR42 (Helicoverpa armigera, UniProt A0A7T3KAF6); assay: Xenopus oocyte two-electrode voltage clamp, HarmOR42 + Orco; format: cell-based
HarmOR42, sequence (A0A7T3KAF6 entry or part of it): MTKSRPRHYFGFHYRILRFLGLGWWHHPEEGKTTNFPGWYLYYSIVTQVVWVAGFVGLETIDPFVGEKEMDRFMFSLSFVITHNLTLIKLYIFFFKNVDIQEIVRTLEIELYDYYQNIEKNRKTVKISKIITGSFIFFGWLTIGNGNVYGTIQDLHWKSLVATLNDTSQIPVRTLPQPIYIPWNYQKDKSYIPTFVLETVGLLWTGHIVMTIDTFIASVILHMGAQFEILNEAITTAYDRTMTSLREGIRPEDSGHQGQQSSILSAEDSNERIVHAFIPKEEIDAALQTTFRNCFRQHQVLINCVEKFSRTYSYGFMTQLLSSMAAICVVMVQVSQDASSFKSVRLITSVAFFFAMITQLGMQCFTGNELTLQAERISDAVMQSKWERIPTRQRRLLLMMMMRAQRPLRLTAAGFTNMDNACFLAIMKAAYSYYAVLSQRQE
Text: In preliminary screening, we used a high dosage (10^−4 M) of odorants. […] Most functional ORs responded robustly to multiple odorants. The strongest response (up to ∼6,000 nanoampere, nA) we detected was that of HarmOR42 toward the aromatic compound PAA. Further, the response profiles of the 28 HarmORs appeared to be highly differentiated, with no apparent overlap in their tuning spectra (with the exception of HarmOR12 and 36) according to functional cluster analysis (fig. 1A).
as §3, §4, §5

[6] = tested on: HarmOR42 orthologs from 11 lepidopteran species; assay: Xenopus oocyte voltage clamp of HarmOR42 orthologs, six-odorant screen; format: cell-based; details: six compounds at 10^−4 M; 11 species
Text: We gathered additional experimental evidence to support this conservation of a PAA-sensing function by performing in vitro functional characterization of HarmOR42 orthologs from 11 lepidopteran species belonging to eight families (fig. 5B). […] It should be noted that the species studied here included three Noctuidae species (H. armigera, H. assulta, and Mythimna separata), four moths from Bombycidae (Bombyx mori), Crambidae (Chilo suppressalis), Sphingidae (Manduca sexta), and Tortricidae (Grapholitha molesta) ([Mitter et al. 2017]; [Kawahara et al. 2019]), and four diurnal butterfly species from diverse families (Vanessa tameamea, Papilio xuthus, Danaus plexippus, and Pieris rapae) (fig. 5B). […]
as §2, with “2010]).” for “2010]). Briefly, the full-length gene of each OR and Orco were subcloned into the eukaryotic expression vector pT7TS. cRNAs were generated from linearized expression vectors using the mMESSAGE mMACHINE T7 kit (Ambion, Austin, TX).”

O=CCc1ccccc1 [Phenylacetaldehyde]
response of SlitOR14 [1]: high specificity and sensitivity | response of RnubOR13 [2]: activated neither | EC50 [3]: 6.97 µM | response of EsemOR19 [4]: no response | EC50 [5]: 48 µM | ligand tuning of HarmOR42 ([5]; 67 odorants at 10^−4 M, listed as PAA): largest response; also recorded: high specificity and sensitivity | current response ([5]; HarmOR42, odorant 10^−4 M, strongest response detected): ~6,000 nA | ligand tuning of HarmOR42 orthologs [6]: robustly tuned to PAA as its best ligand
